Where a name gives a salt, the structure may show the parent alone. Values belong to the compound of their own block, whether it stands above or below them.
What was measured:
[1] = acidic stomach pH; cited from earlier work
[2] = In vitro transmucosal permeation of liraglutide through porcine sublingual mucosa (Franz diffusion cell); assay type: in vitro ADME; details: from nanofibre carrier
Protocol: The liraglutide containing nanofibre carrier samples or the reference solution samples were applied onto fresh porcine sublingual mucosa of thickness ca 0.4 mm fixed in a Franz diffusion cell. An exposed mucosal area for permeation was 1.0 cm^2, and the stirred acceptor phase was phosphate buffer pH 7.4 tempered at 37°±0.5° C. Both the tested solutions (Victoza pre-filled pen for subcutaneous injection, 6 mg/mL and the liraglutide solution in buffer pH 6.80, 0.4 mg/mL) were applied onto the sublingual membrane in 400 μL volume. Donor nanofibre samples contained 0.5 mg of liraglutide in the form of a multilayered nanofibre disc and were suffused in donor space with 400 μL of buffer pH 6.80 or 8.15, respectively.
Determination of liraglutide was performed on an Agilent 1200 instrument. The parameters were as follows: Column Poroshell 120 EC-C18 (4.6×150 mm, particle size: 5.0 μm) was thermostated at 35° C. Samples were kept at 10° C., injection 5.00 μL. Mobile Phase A: Na2HPO4 (pH 7.75):ACN (85:15) was mixed with Mobile Phase B: ACN in gradient and pumped at speed 1.200 mL/min. Detector wavelength: 215 nm. Resulting liraglutide retention time was ca 3.4 min.

[3] = after oral administration; cited from earlier work

SMILES: CCCCCCOC(=O)NC(=N)c1ccc(NCc2nc3cc(C(=O)N(CCC(=O)OCC)c4ccccn4)ccc3n2C)cc1 [DG, Dabigatran ethexylate mesylate]
solubility [1]: very good

duration of further sublingual permeation in vitro [2]: about 1 hour | transmucosal permeation through the sublingual membrane ([2]; FIG. 5): able to permeate transmucosally
SMILES: CCCCCCCCCCCCCCCC(=O)N[C@@H](CCC(=O)NCCCC[C@H](NC(=O)[C@H](C)NC(=O)[C@H](C)NC(=O)[C@H](CCC(N)=O)NC(=O)CNC(=O)[C@H](CCC(=O)O)NC(=O)[C@H](CC(C)C)NC(=O)[C@H](Cc1ccc(O)cc1)NC(=O)[C@H](CO)NC(=O)[C@H](CO)NC(=O)[C@@H](NC(=O)[C@H](CC(=O)O)NC(=O)[C@H](CO)NC(=O)[C@@H](NC(=O)[C@H](Cc1ccccc1)NC(=O)[C@@H](NC(=O)CNC(=O)[C@H](CCC(=O)O)NC(=O)[C@H](C)NC(=O)[C@@H](N)Cc1cnc[nH]1)[C@@H](C)O)[C@@H](C)O)C(C)C)C(=O)N[C@@H](CCC(=O)O)C(=O)N[C@@H](Cc1ccccc1)C(=O)N[C@H](C(=O)N[C@@H](C)C(=O)N[C@@H](Cc1c[nH]c2ccccc12)C(=O)N[C@@H](CC(C)C)C(=O)N[C@H](C(=O)N[C@@H](CCCNC(=N)N)C(=O)NCC(=O)N[C@@H](CCCNC(=N)N)C(=O)NCC(=O)O)C(C)C)[C@@H](C)CC)C(=O)O [Liraglutide]

SMILES: CNS(=O)(=O)Cc1ccc2[nH]cc(CCN(C)C)c2c1 [sumatriptan]
oral bioavailability [3]: 15%

— US12194158B2, “Oromucosal nanofiber carriers for therapeutic treatment” (Instar Technologies A.S., priority 2016, dated 2025)
